Measurements from ChEMBL document CHEMBL3862038, “When Does Chemical Elaboration Induce a Ligand To Change Its Binding Mode?” (J Med Chem, 2017).

Biological target: Heat shock protein HSP90 (Homo sapiens, UniProt P07900+P08238)
Experiment: Inhibition of HSP90 (unknown origin)

With `COc1cccc(C(=O)NC2CCC3CCC(C2)N3c2ccc(C(=O)NCc3ccccc3)cc2)c1C` (stereo unspecified) the Kd was 800 µM.
